Experiments:
[1] = system: human renal proximal tubule cells (HK-2); test: Cardiolipin measurement by LC-MS/MS in HK-2 cells under oxidative stress stimulation (molecular species, total content, acyl groups); format: cell-based; conditions: oxidative stress (100 μM BSO) + DHMBA 250 or 500 μM
Experimental: FIG. 2 is an explanatory drawing for describing increase effects of DHMBA on CL molecular species under oxidative stress conditions. HK-2 cells were cultured with 100 μM BSO and 250 or 500 μM DHMBA, and then recovered and CL was measured using LC-MS/MS. Mean±SD (n=4).
FIG. 3 is an explanatory drawing for describing increase effects of DHMBA on total CL content under oxidative stress conditions. HK-2 cells were cultured with 100 μM BSO and 250 or 500 μM DHMBA, and then recovered and CL was measured using LC-MS/MS. Mean±SD (n=4).
FIG. 4 is an explanatory drawing for describing CL acyl group modification due to addition of DHMBA under oxidative stress conditions. HK-2 cells were cultured with 100 μM BSO and 250 or 500 μM DHMBA, and then recovered and CL was measured using LC-MS/MS. Mean±SD (n=4).
Human renal proximal tubule cells (HK-2) were subcultured in Dulbecco's Modified Eagle's Medium (DMEM, Nacalai Tesque) containing 10% fetal bovine serum and 1% penicillin-streptomycin at 37 °C in a 5% CO2 incubator. The following experiments were conducted using the oxidative stress inducer to confirm the cardiolipin increase effect of DHMBA on the oxidative stress.
HK-2 cells were seeded in a 6-well plate at a density of 1.0×10^5 cells/well and cultured for 24 hours. The cells were then divided into four groups with different stimulus conditions, and 2 mL thereof was added to each well.
The above-described four groups with the different stimulus conditions are as follows.
Control group (culture medium); oxidative stress group (final concentration 100 μM Oxidative Stress); oxidative stress+DHMBA 250 group (final concentration 100 μM Oxidative Stress+final concentration 250 μM DHMBA); and oxidative stress+DHMBA 500 group (final concentration 100 μM Oxidative Stress+final concentration 500 μM DHMBA).
After 24 hours, the cells were washed twice with phosphate-buffered saline (hereinafter referred to as PBS), and then 1 mL of PBS was added to each well and the cells were recovered using a scraper. In this cell suspension, 100 μL was used for protein quantification by a bicinchoninic acid (BCA) method. The protein concentration was used for correction of the cardiolipin concentration. The remaining cell suspension was centrifuged at 1,200 rpm for 5 minutes, the supernatant was removed, and then the precipitated cells were stored at −80 °C.
For the cardiolipin measurement, the total intracellular lipids were extracted in the same way as in the previous reports (Chen Z, et al. Metabolomics, 16: 115, 2020). […]
(§1) The data obtained were expressed as mean±standard deviation (SD), and statistical analysis was performed using JMP Pro 16 (SAS Institute Inc.). […]

CDS2 = test: qPCR expression of CL biosynthesis-related gene CDS2 in HK-2 cells under oxidative stress; format: cell-based, human; conditions: oxidative stress (100 μM BSO) + DHMBA 250 or 500 μM, 24 h, HK-2, β-actin corrected, control = 1
Experimental: FIG. 5 is an explanatory drawing for describing changes in expression level of CL biosynthesis-related genes of DHMBA under oxidative stress conditions. HK-2 cells were cultured with 100 μM BSO and 250 or 500 μM DHMBA, and then the expression levels of CL biosynthesis-related genes were measured by qPCR. Mean±SD (n=4).
(§2) Therefore, in the present invention, the analysis of the expression levels of genes related to cardiolipin biosynthesis, remodeling, and degradation in response to oxidative stress stimulation was verified.
(§3) HK-2 cells were seeded in a 6-well plate at a density of 5.0×10^4 cells/well and cultured for 24 hours.
(§4) Next, under the same stimulus conditions as described above, 2 mL thereof was added to each well. […] The concentration of the purified RNA was quantified by Nanodrop (Invitrogen). […]
(§5) The gene expression levels were measured according to a protocol for THUNDERBIRD (registered trademark) SYBR (registered trademark) qPCR Mix (TOYOBO). Measurements were performed using a CFX Connect™ real-time PCR analysis system (BioRad), and analyzed using a 2^−(ΔΔCT) method.
(§6) The gene expression level of the control group was set at 1 for comparison. The figures are expressed as mean±SD (n=4 for each group). […]
as §1

PNPLA8 = test: qPCR expression of CL remodeling/degradation-related gene PNPLA8 in HK-2 cells under oxidative stress; format: cell-based, human; conditions: oxidative stress (100 μM BSO) + DHMBA 250 or 500 μM, 24 h, HK-2, β-actin corrected, control = 1
Experimental: (§7) FIG. 6 is an explanatory drawing for describing changes in the expression levels of genes related to CL remodeling and degradation of DHMBA under oxidative stress conditions. HK-2 cells were cultured with 100 μM BSO and 250 or 500 μM DHMBA, and then the expression levels of genes related to […] were measured by qPCR. Mean±SD (n=4).
as §2, §3, §4, §5, §6, §1

HADHB = test: qPCR expression of CL remodeling/degradation-related gene HADHB in HK-2 cells under oxidative stress; format: cell-based, human; conditions: oxidative stress (100 μM BSO) + DHMBA 250 or 500 μM, 24 h, HK-2, β-actin corrected, control = 1
Experimental: as §7, §2, §3, §4, §5, §6, §1

[2] = background, to date; cited from earlier work
Keap1-Nrf2 pathway = conditions: background, to date; cited from earlier work
[3] = system: antioxidant gene groups (such as HO-1 and NQO1); conditions: background, to date; cited from earlier work
[4] = background; compared with existing antioxidants; cited from earlier work
mitochondria = conditions: under oxidative stress conditions; results so far; cited from earlier work

SMILES: COc1c(O)cc(CO)cc1O [DHMBA, 3,5-dihydroxy-4-methoxy benzyl alcohol]
- Change in cardiolipin molecular species ([1]; 24 h, HK-2, n=4, vs control group): almost all the cardiolipin molecular species increased significantly
- Change in saturated fatty acid chain FA16:0 of cardiolipin ([1]; HK-2, n=4): decreased
- Change in unsaturated fatty acid chain FA18:1 of cardiolipin ([1]; HK-2, n=4): increased
- Change in unsaturated fatty acid chain FA18:2 of cardiolipin ([1]; HK-2, n=4): increased
- CDS2 gene expression level (CDS2): decreased to the same level as the control group
- PNPLA8 gene expression level (PNPLA8): decreased to the same level as the control group
- HADHB gene expression level (HADHB): increased
- Radical scavenging ability [2]: confirmed
- Activation of the Keap1-Nrf2 pathway (Keap1-Nrf2 pathway): confirmed
- Induction of the expression of antioxidant gene groups (such as HO-1 and NQO1) [3]: confirmed
- Cytotoxicity [4]: lower cytotoxicity than existing antioxidants
- Protective effect on mitochondria (mitochondria): protective effect on mitochondria under oxidative stress conditions

— US20260364027A1, “ENHANCER OF CARDIOLIPIN MOLECULAR SPECIES AS MITOCHONDRIAL COMPONENT” (WATANABE OYSTER LABORATORY, CO., LTD., priority 2022, published 2026)
